According to article PMC3254106 (ACS medicinal chemistry letters, 2011):
One block for each compound: values may come before it.

Experiments:
Aurora = Aurora activity of analogues; format: biochemical
[1] = test system: Pancreatic cancer cells (PSN-1); assay: Cell cycle analysis, propidium iodide flow cytometry; format: cell-based; conditions: PSN-1, 30 nM, 24 hours
panel of 75 kinases = assay: Kinase panel profiling at 200 nM; conditions: 200 nM profiling
AXL kinase = biological target: T1, AXL kinase (Homo sapiens, UniProt P30530); assay: AXL kinase biochemical assay
T1 sequence (P30530 26-894): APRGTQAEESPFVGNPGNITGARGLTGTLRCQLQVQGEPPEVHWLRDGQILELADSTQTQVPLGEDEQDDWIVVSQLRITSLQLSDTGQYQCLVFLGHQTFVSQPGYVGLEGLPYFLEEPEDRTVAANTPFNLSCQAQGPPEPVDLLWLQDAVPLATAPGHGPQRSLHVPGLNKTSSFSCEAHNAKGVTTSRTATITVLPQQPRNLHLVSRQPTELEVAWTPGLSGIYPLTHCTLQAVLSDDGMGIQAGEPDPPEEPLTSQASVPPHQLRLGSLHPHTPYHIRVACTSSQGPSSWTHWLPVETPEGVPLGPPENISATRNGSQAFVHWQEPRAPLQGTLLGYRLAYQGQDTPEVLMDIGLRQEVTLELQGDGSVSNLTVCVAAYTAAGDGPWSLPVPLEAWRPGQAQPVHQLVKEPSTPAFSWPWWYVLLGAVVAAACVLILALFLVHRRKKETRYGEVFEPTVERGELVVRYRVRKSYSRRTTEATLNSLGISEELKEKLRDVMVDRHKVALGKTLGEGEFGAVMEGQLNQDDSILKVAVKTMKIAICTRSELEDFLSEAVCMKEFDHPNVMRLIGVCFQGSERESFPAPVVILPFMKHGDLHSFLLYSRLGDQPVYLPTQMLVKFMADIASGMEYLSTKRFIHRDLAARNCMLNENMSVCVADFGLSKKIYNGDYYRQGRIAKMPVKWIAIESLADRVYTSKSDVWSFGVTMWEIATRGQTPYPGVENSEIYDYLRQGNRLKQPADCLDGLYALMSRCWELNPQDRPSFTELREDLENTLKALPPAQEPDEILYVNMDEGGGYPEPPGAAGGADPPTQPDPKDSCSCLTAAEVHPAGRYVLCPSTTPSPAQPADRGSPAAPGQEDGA

SMILES: CN1CCN(Cc2ccc(Nc3ncc(F)c(-c4ccc(F)cc4S(=O)(=O)N4CCCC4)n3)cc2)CC1 [Compound 16]
- Aurora activity (Aurora): strong aurora activity

SMILES: CN1CCN(Cc2ccc(Nc3ncc(Cl)c(-c4ccc(F)cc4S(=O)(=O)N4CCCC4)n3)cc2)CC1 [Compound 27]
- Aurora activity (Aurora): strong aurora activity

- activity against MER, TYRO3, Aurora A and B, JAK2, ALK, ABL1 and CHEK1 (panel of 75 kinases): strong activity
SMILES: CN1CCN(Cc2ccc(Nc3ncc(Cl)c(Nc4ccccc4S(=O)(=O)N(C)C)n3)cc2)CC1 [Compound 13]
- G2/M (4N) population of cells [1]: significant increase
- cells with ≥4N DNA (8N peak, endoreduplication) [1]: accumulation of cells with ≥4N DNA

- IC50 (AXL kinase): 47 µM
SMILES: CN1CCN(c2ccc(Nc3nc(-c4ccc(F)c(Cl)c4)cc(-c4ccc(F)c(Cl)c4)n3)cc2F)CC1 [Compound 2]

SMILES: CN1CCN(Cc2ccc(Nc3ncc(Cl)c(-c4ccc(F)cc4S(=O)(=O)N(C)C)n3)cc2)CC1 [Compound 26]
- Aurora activity (Aurora): strong aurora activity

SMILES: Cc1cnc(Nc2ccc(CN3CCN(C)CC3)cc2)nc1-c1ccc(F)cc1S(=O)(=O)N1CCCC1 [Compound 15]
- Aurora activity (Aurora): strong aurora activity

- IC50 (AXL kinase): 33 µM
SMILES: CN1CCN(c2ccc(Nc3nc(-c4ccc(F)c(Cl)c4)cc(-c4ccc[nH]4)n3)cc2F)CC1 [Compound 1]
